Literature values, collected in article PMC7523345 (Investigational new drugs, 2018).

Key:
[1] = test system: TNBC cells with NOTCH1 re-arrangements; conditions: in vitro and in vivo; cited from earlier work
[2] = test system: TNBC cells with NOTCH2 rearrangement; conditions: cited from earlier work

**Q.** Which “Sensitivity of TNBC cells with NOTCH1 re-arrangements” value [1] does the source give for `O=S1(=O)N[C@@]2(CN1CC(F)(F)F)[C@@H]1CC[C@H]2Cc2ccc(/C=C/CN3CCC(C(F)(F)F)CC3)cc2C1` [MRK-003] here?
**A.** sensitive

**Q.** And the “Sensitivity of TNBC cells with NOTCH2 rearrangement” value [2]?
**A.** resistant
